# Test system: diamondback moth (Plutella xylostella)
# Experiment: Insecticidal effect on diamondback moth (Test Example 1)
# Format: in vivo
# Details: diamondback moth; judged by the criterion of Test Example 1
# Procedure, shortened: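 Eggs laid by adult moths on Chinese cabbage seedlings, which were immersed in test solution, air-dried and kept at 25 °C. Hatched insects counted 6 days after immersion and mortality calculated, with effect graded by criterion; triplicate groups of 10 insects.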
row,SMILES,"Insecticidal effect (Test Example 1), judged from mortality"
1,Cc1cc(C(F)(F)C(F)(F)F)ccc1NC(=O)c1cccc(Cl)c1C(=O)N(C)Cc1ccccc1F [compound 1579],A (100)
2,Cc1cc(C(F)(F)C(F)(F)F)ccc1NC(=O)c1c(Cl)cccc1C(=O)NCc1ccccc1F [compound 1469],A (100)
3,Cc1cc(C(F)(F)C(F)(F)F)c(C)cc1NC(=O)c1cccc(I)c1C(=O)NC(C)(C)C [compound 1611],A (100)
4,Cc1cc(C(F)(C(F)(F)F)C(F)(F)F)ccc1NC(=O)c1cccc([S+]([O-])C(F)(F)F)c1C(=O)NC(C)C (stereo not shown) [compound 1805],A (100)
5,Cc1cc(C(F)(F)C(F)(F)F)ccc1NC(=O)c1cccc(Cl)c1C(=O)NCC(O)c1ccccc1 (stereo not shown) [compound 1476],A (100)
6,CC(C)(C)NC(=O)c1c(I)cccc1C(=O)Nc1ccc2oc(C(F)(F)F)nc2c1Cl [compound 1683],A (100)

# Same assay, conditions: diamondback moth; judged by the mortality criterion of Test Example 1
row,SMILES,"Insecticidal effect, Test Example 1"
1,CC(C)NC(=O)c1cccc(Cl)c1C(=O)Nc1cccc(Cl)c1Cl [compound 208],A (100)
2,Cc1cc(Oc2cccc(C(F)(F)F)c2)ccc1NC(=O)c1ccccc1C(=O)NC(C)C [compound 74],A (100)
3,CC(C)NC(=O)c1ccc(Cl)cc1C(=O)Nc1cccc(Cl)c1Cl [compound 186],D (79-50)
4,Cc1cc(OC(F)(F)F)ccc1NC(=O)c1ccccc1C(=O)NC(C)C [compound 59],A (100)
5,CC(C)NC(=O)c1cc(Cl)ccc1C(=O)Nc1cccc(Cl)c1Cl [compound 175],A (100)
6,CC(C)NC(=O)c1cccc(Cl)c1C(=O)Nc1ccc(C(F)(F)C(F)(F)C(F)(F)C(F)(F)F)cc1 [compound 199],A (100)
7,Cc1cc(C)c(NC(=O)c2c(Br)cccc2C(=O)NC(C)C)c(C)c1 [compound 304],A (100)
8,CCCNC(=O)c1ccccc1C(=O)Nc1ccc(C(F)(F)F)cc1 [compound 14],A (100)
9,CC(C)NC(=O)c1cccc(Cl)c1C(=O)Nc1cc(Cl)c(OC(F)F)c(Cl)c1 [compound 227],A (100)
10,CC(C)NC(=O)c1cccc(Cl)c1C(=O)Nc1ccc(OC(F)F)c(F)c1 [compound 233],A (100)
11,Cc1ccc(F)cc1NC(=O)c1cc(Cl)ccc1C(=O)NC(C)C [compound 192],A (100)
12,CC(C)NC(=O)c1ccccc1C(=O)Nc1ccccc1 [compound 20],A (100)
13,Cc1cc(OC(F)F)ccc1NC(=O)c1c(C(=O)NC(C)C)ccc(Br)c1Br [compound 342],A (100)
14,Cc1cc(Cl)ccc1NC(=O)c1c(I)cccc1C(=O)NC(C)C [compound 428],A (100)
15,CCc1cc(Cl)ccc1NC(=O)c1c(Br)cccc1C(=O)NC(C)C [compound 310],A (100)

# Same assay, conditions: diamondback moth; mortality judged by criterion of Test Example 1
row,SMILES,"Insecticidal effect, Test Example 1"
1,Cc1cc(OC(F)(F)C(F)F)ccc1NC(=O)c1cc(I)ccc1C(=O)NC(C)C [compound 1249],A (100)
2,Cc1cc(OC(F)(F)F)ccc1NC(=O)c1cc(I)ccc1C(=O)NC(C)C [compound 1247],C (89-80)
3,CCN(CC)C(=O)c1c(I)cccc1C(=O)Nc1ccc2nc(-c3ccccc3C(F)(F)F)oc2c1 [compound 1178],A (100)
4,Cc1cc(OC(F)F)ccc1NC(=O)c1c(I)cccc1C(=O)NCc1ccccc1 [compound 1431],A (100)
5,Cc1cc(C(F)(F)C(F)(F)F)ccc1NC(=O)c1c(I)cccc1C(=O)NC1CC1 [compound 1025],A (100)
6,CCOCCNC(=O)c1cccc(I)c1C(=O)Nc1ccc(C(F)(F)C(F)(F)F)cc1C [compound 984],A (100)
7,CC(C)(C)NC(=O)c1c(I)cccc1C(=O)Nc1ccc2nc(C(F)(F)C(F)(F)F)oc2c1 [compound 1181],A (100)
8,Cc1cc(C(F)(F)C(F)(F)F)ccc1NC(=O)c1c(Cl)cccc1C(=O)NC(C)c1ccccc1 (stereo not shown) [compound 1322],A (100)
9,Cc1cc(C(F)(F)C(F)(F)F)ccc1NC(=O)c1c(Cl)cccc1C(=O)NC(C)c1cccc(Cl)c1 (stereo not shown) [compound 1365],A (100)
10,Cc1cc(C(F)(F)C(F)(F)F)ccc1NC(=O)c1cccc(Cl)c1C(=O)NCCc1ccccc1 [compound 1319],A (100)
11,Cc1cc(OC(F)(F)F)ccc1NC(=O)c1ccc(F)c(F)c1C(=O)NC(C)C [compound 1283],A (100)
12,Cc1cc(C(F)(F)C(F)(F)F)ccc1NC(=O)c1cccc(I)c1C(=O)N1CCC(C)CC1 [compound 1083],A (100)
13,Cc1cc(OC(F)F)ccc1NC(=O)c1cccc(I)c1C(=O)N(C)Cc1ccccc1 [compound 1440],A (100)
14,C=CCNC(=O)c1cccc(I)c1C(=O)Nc1ccc(C(F)(F)C(F)(F)F)cc1C [compound 988],A (100)
15,Cc1cc(OC(F)F)ccc1NC(=O)c1cccc(Cl)c1C(=O)NCc1ccccc1Cl [compound 1423],A (100)
16,Cc1cc(C(F)(F)C(F)(F)F)ccc1NC(=O)c1ccccc1C(=O)NC(CO)c1ccccc1 (stereo not shown) [compound 1379],A (100)
17,Cc1cc(C(F)(F)C(F)(F)F)ccc1NC(=O)c1c(Cl)cccc1C(=O)NC(C)c1ccc(Cl)cc1 (stereo not shown) [compound 1367],A (100)

# Same assay, conditions: mortality judged according to the criterion shown in Test Example 1
row,SMILES,"Insecticidal effect on diamondback moth (Test Example 1), judged grade"
1,CC(C)NC(=O)c1c(C(=O)Nc2ccc(Cl)cc2)cccc1[N+](=O)[O-] [compound 588],A (100)
2,Cc1ccc(Br)cc1NC(=O)c1cccc([N+](=O)[O-])c1C(=O)NC(C)C [compound 672],A (100)
3,COCCNC(=O)c1c(C(=O)Nc2cc(Cl)ccc2C)cccc1[N+](=O)[O-] [compound 871],A (100)
4,Cc1ccc(F)cc1NC(=O)c1cccc([N+](=O)[O-])c1C(=O)NC1CCC1 [compound 855],A (100)
5,Cc1cc(Oc2c(F)c(F)c(F)c(F)c2F)ccc1NC(=O)c1cccc(F)c1C(=O)NC(C)C [compound 520],A (100)
6,Cc1cc(Cl)c(Cl)cc1NC(=O)c1cccc([N+](=O)[O-])c1C(=O)NC(C)C [compound 668],A (100)
7,CCc1cc(I)ccc1NC(=O)c1cccc(I)c1C(=O)NC(C)C [compound 919],A (100)
8,C=CCNC(=O)c1c(C(=O)Nc2cc(Cl)ccc2C)cccc1[N+](=O)[O-] [compound 866],D (79-50)
9,CCCCNC(=O)c1c(C(=O)Nc2cc(Cl)ccc2C)cccc1[N+](=O)[O-] [compound 830],C (89-80)
10,Cc1ccc(Cl)cc1NC(=O)c1cccc([N+](=O)[O-])c1C(=O)NC(C)c1ccccc1 (stereo not shown) [compound 878],C (89-80)
11,CCC(C)NC(=O)c1ccccc1C(=O)Nc1ccc(C(F)(F)F)cc1 (stereo not shown) [compound 835],A (100)
12,CC(C)NC(=O)c1c(C(=O)Nc2cccc(OC(C)C)c2)cccc1[N+](=O)[O-] [compound 615],A (100)
13,CC(C)NC(=O)c1c(C(=O)Nc2ccc3c(c2)OCO3)cccc1[N+](=O)[O-] [compound 733],A (100)
14,CC(C)NC(=O)c1cccc(F)c1C(=O)Nc1ccc(OC(F)(F)F)cc1 [compound 537],A (100)
15,CC(C)NC(=O)c1cccc(I)c1C(=O)Nc1ccc(OC(F)F)cc1C(F)(F)F [compound 465],A (100)
16,CSc1cccc(NC(=O)c2cccc([N+](=O)[O-])c2C(=O)NC(C)C)c1 [compound 621],A (100)
17,CC(C)NC(=O)c1c(C(=O)Nc2ccccc2F)cccc1[N+](=O)[O-] [compound 592],A (100)
18,CC(C)NC(=O)c1c(C(=O)Nc2ccc(F)c(F)c2F)cccc1[N+](=O)[O-] [compound 645],A (100)
19,O=C(Nc1ccc(C(F)(F)F)cc1)c1ccccc1C(=O)NC1CC1 [compound 848],A (100)
20,Cc1cc(Cl)ccc1NC(=O)c1cccc(C#N)c1C(=O)NC(C)C [compound 744],C (89-80)

# Source: US6362369B1, “Phthalic acid diamide derivatives fluorine-containing aniline compounds as starting material, agricultural and horticultural insecticides, and a method for application of the insecticides” (Nihon Nohyaku Co., Ltd., priority 1997, dated 2002)
